From ChEMBL document CHEMBL3885881, “DrugMatrix”

Organism: Rattus norvegicus
Assay: DrugMatrix - Regimen: Daily Repeat
Assay type: toxicity, organism-based, Sprague-Dawley
Parameters: regimen Daily Repeat, gender Male, age 6-8 weeks
Details: in vivo, po, route oral GAVAGE, […]; for ABSOLUTE BASOPHIL / ABSOLUTE EOSINOPHIL / ABSOLUTE LYMPHOCYTE / ABSOLUTE MONOCYTE / ABSOLUTE SEGMENTED NEUTROPHIL / BASOPHIL / EOSINOPHIL / ERYTHROCYTE COUNT / HEMATOCRIT / HEMOGLOBIN / LEUKOCYTE COUNT / LYMPHOCYTE / MEAN CORPUSCULAR HEMOGLOBIN / MEAN CORPUSCULAR HEMOGLOBIN CONCENTRATION / MEAN CORPUSCULAR VOLUME / MONOCYTE / NEUTROPHIL / NUCLEATED RED BLOOD CELLS / PLATELET COUNT: tissue Blood; for ALANINE AMINOTRANSFERASE / ALKALINE PHOSPHATASE / ASPARTATE AMINOTRANSFERASE / BLOOD UREA NITROGEN / CARBON DIOXIDE / CHLORIDE / CHOLESTEROL / CREATINE PHOSPHOKINASE / CREATININE / GLUCOSE / LACTATE DEHYDROGENASE / LIPASE / PHOSPHORUS / POTASSIUM / SODIUM / TOTAL BILIRUBIN / TOTAL PROTEIN / URIC ACID: tissue Plasma
[1] = 22 mg/kg, 120 h, dose level High, time 5 day
[2] = 72 h, dose 2.5 mg/Kg, dose level Low, time 3 day
[3] = 120 h, dose 2.5 mg/Kg, dose level Low, time 5 day

SMILES: OCCN1CCN(CCCN2c3ccccc3Sc3ccc(C(F)(F)F)cc32)CC1 [FLUPHENAZINE]
- ABSOLUTE BASOPHIL [1]: 0 CELLS/uL
- ABSOLUTE EOSINOPHIL [1]: 112 CELLS/uL
- ABSOLUTE LYMPHOCYTE [1]: 12846 CELLS/uL
- ABSOLUTE MONOCYTE [1]: 29.33 CELLS/uL
- ABSOLUTE SEGMENTED NEUTROPHIL [1]: 379.33 CELLS/uL
- BASOPHIL [1]: 0%
- EOSINOPHIL [1]: 1.33%
- ERYTHROCYTE COUNT [1]: 6.02 x10E6/uL
- HEMATOCRIT [1]: 36.97%
- HEMOGLOBIN [1]: 14.2 G/DL
- LEUKOCYTE COUNT [1]: 13.37 x10E3/uL
- LYMPHOCYTE [1]: 95%
- MEAN CORPUSCULAR HEMOGLOBIN [1]: 23.6 pg
- MEAN CORPUSCULAR HEMOGLOBIN CONCENTRATION [1]: 38.43 G/DL
- MEAN CORPUSCULAR VOLUME [1]: 61.37 fL
- MONOCYTE [1]: 0.33%
- NEUTROPHIL [1]: 3.33%
- NUCLEATED RED BLOOD CELLS [1]: 0 /100WBC
- PLATELET COUNT [1]: 1170.67 x10E3/uL
- ALANINE AMINOTRANSFERASE [1]: 39.33 u/L
- ALKALINE PHOSPHATASE [1]: 322.67 u/L
- ASPARTATE AMINOTRANSFERASE [1]: 67.67 u/L
- BLOOD UREA NITROGEN [1]: 15.67 mg/dL
- CARBON DIOXIDE [1]: 26.67 mmol/L
- CHLORIDE [1]: 101.33 MEQ/L
- CHOLESTEROL [1]: 61.33 mg/dL
- CREATINE PHOSPHOKINASE [1]: 190.33 u/L
- CREATININE [1]: 0.13 mg/dL
- GLUCOSE [1]: 198.67 mg/dL
- LACTATE DEHYDROGENASE [1]: 80.67 u/L
- LIPASE [1]: 9.67 u/L
- PHOSPHORUS [1]: 9.4 mg/dL
- POTASSIUM [1]: 5.22 MEQ/L
- SODIUM [1]: 144.73 MEQ/L
- TOTAL BILIRUBIN [1]: 0.2 mg/dL
- TOTAL PROTEIN [1]: 6.13 G/DL
- URIC ACID [1]: 0.77 mg/dL
- ABSOLUTE BASOPHIL [2]: 0 CELLS/uL
- ABSOLUTE EOSINOPHIL [2]: 0 CELLS/uL
- ABSOLUTE LYMPHOCYTE [2]: 6619.33 CELLS/uL
- ABSOLUTE MONOCYTE [2]: 22 CELLS/uL
- ABSOLUTE SEGMENTED NEUTROPHIL [2]: 525.33 CELLS/uL
- BASOPHIL [2]: 0%
- EOSINOPHIL [2]: 0%
- ERYTHROCYTE COUNT [2]: 5.21 x10E6/uL
- HEMATOCRIT [2]: 33.8%
- HEMOGLOBIN [2]: 13.13 G/DL
- LEUKOCYTE COUNT [2]: 7.17 x10E3/uL
- LYMPHOCYTE [2]: 92.33%
- MEAN CORPUSCULAR HEMOGLOBIN [2]: 25.2 pg
- MEAN CORPUSCULAR HEMOGLOBIN CONCENTRATION [2]: 38.83 G/DL
- MEAN CORPUSCULAR VOLUME [2]: 64.97 fL
- MONOCYTE [2]: 0.33%
- NEUTROPHIL [2]: 7.33%
- NUCLEATED RED BLOOD CELLS [2]: 0 /100WBC
- PLATELET COUNT [2]: 973 x10E3/uL
- ALANINE AMINOTRANSFERASE [2]: 49.67 u/L
- ALKALINE PHOSPHATASE [2]: 458.33 u/L
- ASPARTATE AMINOTRANSFERASE [2]: 79.67 u/L
- BLOOD UREA NITROGEN [2]: 13.33 mg/dL
- CARBON DIOXIDE [2]: 33.67 mmol/L
- CHLORIDE [2]: 99.5 MEQ/L
- CHOLESTEROL [2]: 74 mg/dL
- CREATINE PHOSPHOKINASE [2]: 223.67 u/L
- CREATININE [2]: 0.14 mg/dL
- GLUCOSE [2]: 142.33 mg/dL
- LACTATE DEHYDROGENASE [2]: 61.33 u/L
- LIPASE [2]: 13.67 u/L
- PHOSPHORUS [2]: 9.77 mg/dL
- POTASSIUM [2]: 6.34 MEQ/L
- SODIUM [2]: 144.3 MEQ/L
- TOTAL BILIRUBIN [2]: 0.13 mg/dL
- TOTAL PROTEIN [2]: 5.33 G/DL
- URIC ACID [2]: 0.6 mg/dL
- ABSOLUTE BASOPHIL [3]: 0 CELLS/uL
- ABSOLUTE EOSINOPHIL [3]: 0 CELLS/uL
- ABSOLUTE LYMPHOCYTE [3]: 9833.67 CELLS/uL
- ABSOLUTE MONOCYTE [3]: 155 CELLS/uL
- ABSOLUTE SEGMENTED NEUTROPHIL [3]: 711.33 CELLS/uL
- BASOPHIL [3]: 0%
- EOSINOPHIL [3]: 0%
- ERYTHROCYTE COUNT [3]: 5.5 x10E6/uL
- HEMATOCRIT [3]: 35.1%
- HEMOGLOBIN [3]: 13.53 G/DL
- LEUKOCYTE COUNT [3]: 10.7 x10E3/uL
- LYMPHOCYTE [3]: 91.67%
- MEAN CORPUSCULAR HEMOGLOBIN [3]: 24.63 pg
- MEAN CORPUSCULAR HEMOGLOBIN CONCENTRATION [3]: 38.57 G/DL
- MEAN CORPUSCULAR VOLUME [3]: 63.83 fL
- MONOCYTE [3]: 1%
- NEUTROPHIL [3]: 7.33%
- NUCLEATED RED BLOOD CELLS [3]: 0 /100WBC
- PLATELET COUNT [3]: 1129.67 x10E3/uL
- ALANINE AMINOTRANSFERASE [3]: 57 u/L
- ALKALINE PHOSPHATASE [3]: 337 u/L
- ASPARTATE AMINOTRANSFERASE [3]: 75 u/L
- BLOOD UREA NITROGEN [3]: 15 mg/dL
- CARBON DIOXIDE [3]: 28 mmol/L
- CHLORIDE [3]: 99 MEQ/L
- CHOLESTEROL [3]: 72 mg/dL
- CREATINE PHOSPHOKINASE [3]: 195.33 u/L
- CREATININE [3]: 0.18 mg/dL
- GLUCOSE [3]: 180 mg/dL
- LACTATE DEHYDROGENASE [3]: 77.33 u/L
- LIPASE [3]: 10.67 u/L
- PHOSPHORUS [3]: 9.47 mg/dL
- POTASSIUM [3]: 4.99 MEQ/L
- SODIUM [3]: 144.87 MEQ/L
- TOTAL BILIRUBIN [3]: 0.23 mg/dL
- TOTAL PROTEIN [3]: 6.1 G/DL
- URIC ACID [3]: 0.5 mg/dL
